According to patent US20250367184A1, “CYP11A1 INHIBITOR FOR USE IN THE TREATMENT OF PROSTATE CANCER” (ORION CORPORATION, priority 2021, published 2025):

Legend:
[1] = tested on: Patients with progressive mCRPC; assay: Clinical study of compound (1A) in progressive mCRPC patients: PSA change from baseline by activating AR gene alteration status; format: in vivo, human; conditions: for subjects with PSA decline of ≥50% (PSA response): oral 10-150 mg daily with corticosteroids, on ADT, prior ARSi
Text: Patients with progressive mCRPC were enrolled in the clinical trial to study the effect of a CYP11A1 inhibitor 2-(isoindolin-2-ylmethyl)-5-((1-(methylsulfonyl)-piperidin-4-yl)methoxy)-4H-pyran-4-one (1A). The patients were on ADT therapy and had previously received androgen receptor signalling inhibitor (ARSi) therapy and chemotherapy, or were ineligible for chemotherapy. Five different daily dose levels of compound (1A) with dexamethasone and fludrocortisone were given orally to 27 patients in the dose escalation/de-escalation part. Corticosteroid doses were allowed to be adjusted during the trial based on the subject's clinical condition. The daily doses were 10 mg (5 mg b.i.d), 30 mg (15 mg b.i.d.), 50 mg (25 mg b.i.d), 100 mg (50 mg b.i.d.), and 150 mg (75 mg b.i.d.). In a separate dosing evaluation part, once daily dosing of 25 mg of compound (1A), and two different glucocorticoid replacement therapies, hydrocortisone and prednisone, were evaluated in 14 patients. Subjects were allowed to continue the therapy until disease progression or intolerable toxicity. Anti-tumour activity was determined by measuring change in the PSA (prostate-specific antigen) value in PSA evaluable patient population (n=37, at least 4-week value available). A decrease in the PSA value indicates anti-tumour activity. PSA response in a patient was defined as at least 50% decline from the baseline PSA value.
(§1) Existence of activating AR-LBD somatic point mutations and AR gene amplification were analysed in plasma cfDNA samples obtained from the patients using the OncoBEAM® prostate cancer digital PCR assay panel (Sysmex Inostics, Inc.) and Guardant360 CDx (Guardant Health, Inc) assay panel. The assay panels were utilized to test the existence of activating AR-LBD point mutations including L702H, V716M, V716L, W742C, W742L, H875Y, F877L, T878A, T878S, D891Y, M896T and M896V.

[2] = tested on: Patients with progressive mCRPC; assay: Clinical study of compound (1B) in progressive mCRPC patients: PSA change from baseline by activating AR gene alteration status; format: in vivo, human; conditions: for subjects with PSA decline of ≥50% (PSA response): oral 10-20 mg daily with corticosteroids, on ADT, prior ARSi
Text: Patients with progressive mCRPC were enrolled in the clinical trial to study the effect of a CYP11A1 inhibitor 2-5-((1-(methylsulfonyl)piperidin-4-yl)methoxy)-2-((5-(trifluoromethyl) isoindolin-2-yl)methyl)-4/-pyran-4-one (1B). The patients were on ADT therapy and had previously received androgen receptor signalling inhibitor (ARSi) therapy and chemotherapy, or were ineligible for chemotherapy. Three different daily dose levels of compound (1B) with hydrocortisone and fludro-cortisone were given orally to 13 subjects in the dose escalation part. Corticosteroid doses were allowed to be adjusted during the trial based on the subject's clinical condition. The daily doses were 10 mg (10 mg q.d), 15 mg (15 mg q.d) and 20 mg (20 mg q.d). In a separate dosing evaluation part, twice daily dosing of 5 mg and 10 mg of compound (1B), and different glucocorticoid replacement therapy, dexamethasone, and different hydrocortisone dosing regimen were evaluated in 16 patients. Subjects were allowed to continue the therapy until disease progression or intolerable toxicity. Anti-tumour activity was determined by measuring change in the PSA (prostate-specific antigen) value. A decrease in the PSA value indicates anti-tumour activity. PSA response in a patient was defined as at least 50% decline from the baseline PSA value.
as §1, with “AR-LBD” for “AR-LBD point”

Row | Compound | subjects with a PSA response (decline of ≥50%) that were activating AR gene alteration positive ([1]; 12 out of 13 PSA responders) [%] | subjects with PSA decline of ≥50% (PSA response) ([1]; subjects with activating AR gene alteration (12 out of 17)) [%] | subjects with PSA decline of ≥50% (PSA response) ([1]; subjects without an activating AR gene alteration (1 out of 20)) [%] | anti-tumour activity (PSA change) in subjects with versus without activating AR gene alteration ([1]; with alteration n=17 compared to without n=20) | subjects with a PSA response (decline of ≥50%) that were activating AR gene alteration positive ([2]; 6 out of 6 PSA responders) [%] | subjects with PSA decline of ≥50% (PSA response) ([2]; subjects with activating AR gene alteration (6 out of 17)) [%] | subjects with PSA decline of ≥50% (PSA response) ([2]; subjects without an activating AR gene alteration (0 out of 8)) [%] | anti-tumour activity (PSA change) in subjects with versus without activating AR gene alteration ([2]; with alteration n=17 compared to without n=8)
1 | CS(=O)(=O)N1CCC(COc2coc(CN3Cc4ccccc4C3)cc2=O)CC1 [1A, 2-(isoindolin-2-ylmethyl)-5-((1-(methylsulfonyl)piperidin-4-yl)methoxy)-4H-pyran-4-one] | 92.3 | 70.6 | 5.0 | substantially higher | – | – | – | –
2 | CS(=O)(=O)N1CCC(COc2coc(CN3Cc4ccc(C(F)(F)F)cc4C3)cc2=O)CC1 [1B, 5-((1-(methylsulfonyl)piperidin-4-yl)methoxy)-2-((5-(trifluoromethyl)isoindolin-2-yl)methyl)-4H-pyran-4-one] | – | – | – | – | 100 | 35.3 | 0 | substantially higher
